Key:
[1] = tested on: ANGIOTENSIN II VASOPRESSOR RESPONSE; test: AII Challenge: blockade of angiotensin II vasopressor response in conscious SHR; format: in vivo, rat (Conscious Male Okamoto-Aoki SHR); conditions: SHR n=2, 3 mg/kg i.v.
Source text: By administering a compound of this invention to a rat, and then challenging with angiotensin II, a blockage of the vasopressor response is realized.
Conscious Male Okamoto-Aoki SHR, 16-20 weeks old, weighing approximately 330 g are purchased from Charles River Labs (Wilmington, Mass.). Conscious rats are restrained in a supine position with elastic tape. The area at the base of the tail is locally anesthetized by subcutaneous infiltration with 2% procaine. The ventral caudal artery and vein are isolated, and a cannula made of polyethylene (PE) 10-20 tubing (fused together by heat) is passed into the lower abdominal aorta and vena cava, respectively. The cannula is secured, heparinized (1,000 I.U./ml), sealed and the wound is closed. The animals are placed in plastic restraining cages in an upright position. The cannula is attached to a Statham P23Db pressure transducer, and pulsatile blood pressure is recorded to 10-15 minutes with a Gould Brush recorder. (Chan et al., (Drug Development Res., 18:75-94, 1989).
Angiotensin II (human sequence, Sigma Chem. Co., St. Louis, MO) of 0.05 and 0.1 ug/kg i.v. is injected into all rats (predosing response). Then a test compound, vehicle or a known angiotensin II antagonist is administered i.v., i.p. or orally to each set of rats. The two doses of angiotensin II are given to each rat again at 30, 60, 90, 120, 180, 240 and 300 minutes post dosing the compound or vehicle. The vasopressor response of angiotensin II is measured for the increase in systolic blood pressure in mmHg. The percentage of antagonism or blockade of the vasopressor response of angiotensin II by a compound is calculated using the vasopressor response (increase in systolic blood pressure) of angiotensin II of each rat predosing the compound as 100%. A compound is considered active if at 30 mg/kg i.v. it antagonized at least 50% of the response.

Angiotensin II Receptor = target: T1, Angiotensin II Receptor (Bos taurus, UniProt P25104); test: Receptor Binding Assay: Binding of [^125 I](Sar^1,Ile^8)AngII to beef adrenal cortex membranes; conditions: 60 min, room temperature
T1 construct: The brownish tissue forming the adrenal cortex is scraped off and finely minced with scissors before homogenization; from tissue; host or cells: beef adrenal cortex, microsomal membranes (100,000×g pellet); fresh glands from a local slaughter house (Maxwell-Cohen)
T1 sequence (P25104 1-359): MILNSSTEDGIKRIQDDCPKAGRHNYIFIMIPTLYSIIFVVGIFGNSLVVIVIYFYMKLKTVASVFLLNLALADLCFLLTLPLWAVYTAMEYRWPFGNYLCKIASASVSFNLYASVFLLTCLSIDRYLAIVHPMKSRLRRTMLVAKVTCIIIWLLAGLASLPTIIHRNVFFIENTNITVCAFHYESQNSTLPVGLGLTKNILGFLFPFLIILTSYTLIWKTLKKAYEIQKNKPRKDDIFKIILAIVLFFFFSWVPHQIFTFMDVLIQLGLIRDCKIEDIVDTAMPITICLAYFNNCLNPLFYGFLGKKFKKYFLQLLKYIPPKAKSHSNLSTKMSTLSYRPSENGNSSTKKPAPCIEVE
Source text: Beef adrenals are obtained from a local slaughter house (Maxwell-Cohen). [^125 […]. 2200 Ci/mmole, is purchased from Dupont (NEN®, Boston, Mass.). All unlabeled AngII analogs, Dimethylsulfoxide (DMSO), nucleotides, bovine serum albumin (BSA) are purchased from Sigma Chemical Co., St. Louis, Mo. U.S.A. […] Approximately sixteen (16) to twenty (20) beef adrenal glands are processed as follows: fresh adrenal glands received on crushed ice are cleaned of fatty tissues and the tough membranes encapsulating the glands are removed and discarded. The brownish tissue forming the adrenal cortex is scraped off and finely minced with scissors before homogenization. Care is taken to avoid contamination with medullary tissue during dissection. The scraped cortices are suspended in twenty volumes of an ice-cold buffer medium consisting of 10 mM Tris.HCl (pH 7.4 at 22° C.) and containing 1.0 mM EDTA and 0.2M sucrose. Unless otherwise indicated, all subsequent operations are done at 4° C. […] The homogenate is centrifuged first at low speed (3,000×g) for 10 minutes. […] This P2 pellet is discarded and the liquid phase is carefully decanted off in clean centrifuge tubes and recentrifuged at high speed (100,000×g) for 60 minutes. The translucent final pellet is harvested and combined in a small volume (20-50.0 ml) of 50.0 mM Tris.HCl buffer, pH 7.2. A 100 ul aliquot is withdrawn and the protein content of the preparation is determined by the Lowry's method (Lowry, O. H., Rosebrough, […]. and Randall, R. J., Protein measurement with Folin phenol reagent. J. Biol. Chem., […], 265-275, 1951). The pelleted membrane is reconstituted in 50.0 mM Tris.HCl buffer containing 0.1 mM of phenylmethylsulfonyl fluoride (PMSF) to give approximately a protein concentration of 2.5 mg per ml of tissue suspension. […] Receptor Binding Assay: […] In competition studies, experimental compounds are diluted in dimethylsulfoxide (DMSO) and added in 20 ul to wells before the introduction of tissue membranes. […] Assays are performed in triplicate. The wells are left undisturbed for 60 minutes at room temperature. Following incubation, all wells are harvested at once with a Brandel® Harvester especially designed for a 96 well plate (Brandel® Biomedical Research & Development Labs. Inc., Gaithersburg, Md., U.S.A.). The filter discs are washed with 10×1.0 ml of cold 0.9% NaCl to remove unbound ligand. Presoaking the filter sheet in 0.1% polyethyleneimine in normal saline (PEI/Saline) greatly reduces the radioactivity retained by the filter blanks. This method is routinely used. The filters are removed from the filter grid and counted in a Parkard® Cobra Gamma Counter for 1 minutes. (Packard Instrument Co., Downers Grove, Ill, U.S.A.). The binding data are analyzed by the non-linear interactive "LUNDON-1" program (LUNDON SOFTWARE Inc., Cleveland, Ohio U.S.A.).

[2] = AII 0.05 mcg/kg IV, 30 min post dose
[3] = AII 0.05 mcg/kg IV, 60 min post dose
[4] = AII 0.05 mcg/kg IV, 90 min post dose
[5] = AII 0.05 mcg/kg IV, 120 min post dose
[6] = AII 0.05 mcg/kg IV, 180 min post dose
[7] = AII 0.05 mcg/kg IV, 240 min post dose
[8] = AII 0.05 mcg/kg IV, 300 min post dose
[9] = AII 0.1 mcg/kg IV, 30 min post dose
[10] = AII 0.1 mcg/kg IV, 60 min post dose
[11] = AII 0.1 mcg/kg IV, 90 min post dose
[12] = AII 0.1 mcg/kg IV, 120 min post dose
[13] = AII 0.1 mcg/kg IV, 180 min post dose
[14] = AII 0.1 mcg/kg IV, 240 min post dose
[15] = AII 0.1 mcg/kg IV, 300 min post dose

Row | Compound | % Inhibition of AII vasopressor response [1, 2] [%] | Average Change (systolic blood pressure response to AII) [1, 2] [mmHg] | % Inhibition of AII vasopressor response [1, 3] [%] | Average Change (systolic blood pressure response to AII) [1, 3] [mmHg] | % Inhibition of AII vasopressor response [1, 4] [%] | Average Change (systolic blood pressure response to AII) [1, 4] [mmHg] | % Inhibition of AII vasopressor response [1, 5] [%] | Average Change (systolic blood pressure response to AII) [1, 5] [mmHg] | % Inhibition of AII vasopressor response [1, 6] [%] | Average Change (systolic blood pressure response to AII) [1, 6] [mmHg] | % Inhibition of AII vasopressor response [1, 7] [%] | Average Change (systolic blood pressure response to AII) [1, 7] [mmHg] | % Inhibition of AII vasopressor response [1, 8] [%] | Average Change (systolic blood pressure response to AII) [1, 8] [mmHg] | % Inhibition of AII vasopressor response [1, 9] [%] | Average Change (systolic blood pressure response to AII) [1, 9] [mmHg] | % Inhibition of AII vasopressor response [1, 10] [%] | Average Change (systolic blood pressure response to AII) [1, 10] [mmHg] | % Inhibition of AII vasopressor response [1, 11] [%] | Average Change (systolic blood pressure response to AII) [1, 11] [mmHg] | other results
1 | CCCCc1nc2ccc(C(O)C3CCCS3(=O)=O)cc2c(=O)n1Cc1ccc(-c2ccccc2-c2nn[nH]n2)cc1 (single isomer, unassigned; isomer 2) [Example 16, 2-Butyl-6-[hydroxy(tetrahydro-2-thienyl)methyl-3-[2'-(1H-tetrazol-5-yl)[1,1'biphenyl]-4-yl]methyl]-4(3H)-quinazolinone S, S-dioxide, isomer 2] | 72 | 12.5 | 30 | 31.5 | 61 | 17.5 | 71 | 13 | 39 | 27.5 | 39 | 27.5 | 33 | 30 | 43 | 20 | 64 | 12.5 | 36 | 22.5 | % Inhibition of AII vasopressor response [1, 12]: 50%; Average Change (systolic blood pressure response to AII) [1, 12]: 17.5 mmHg; % Inhibition of AII vasopressor response [1, 13]: 14%; Average Change (systolic blood pressure response to AII) [1, 13]: 30 mmHg; % Inhibition of AII vasopressor response [1, 14]: 0%; Average Change (systolic blood pressure response to AII) [1, 14]: 35 mmHg; % Inhibition of AII vasopressor response [1, 15]: -21%; Average Change (systolic blood pressure response to AII) [1, 15]: 42.5 mmHg; IC50 (Angiotensin II Receptor): 110 nM
2 | CCCCc1nc2ccc(C(C)(O)C3CCN(C)C3=O)cc2c(=O)n1Cc1ccc(-c2ccccc2-c2nn[nH]n2)cc1 (single isomer, unassigned; isomer 2) [Example 48, 2-Butyl-6-1-hydroxy-1(1-methyl-2-oxo-3-pyrrolidinyl)ethyl]-3-[[2'-(1H-tetrazol-5-yl)[1,1'-biphenyl]-4-yl]methyl-4(3H)-quinazolinone isomer 2] | 92 | 3.5 | 89 | 5 | 83 | 7.5 | 97 | 1.5 | 69 | 13.5 | 68 | 14 | 71 | 12.5 | 95 | 25 | 100 | 0 | 95 | 2.5 | % Inhibition of AII vasopressor response [1, 12]: 84%; Average Change (systolic blood pressure response to AII) [1, 12]: 8.5 mmHg; % Inhibition of AII vasopressor response [1, 13]: 57%; Average Change (systolic blood pressure response to AII) [1, 13]: 22.5 mmHg; % Inhibition of AII vasopressor response [1, 14]: 52%; % Inhibition of AII vasopressor response [1, 15]: 57%; Average Change (systolic blood pressure response to AII) [1, 15]: 22.5 mmHg; IC50 (Angiotensin II Receptor): 43 nM

From US5288720A, “Angiotensin II receptor blocking 2,3,6 substituted quinazolinones” (American Cyanamid Company, priority 1993, dated 1994)
